According to patent publication US20240209028A1, “CNP COMPOUNDS” (priority 2022, published 2024):
Starred links: 1 amine or outer side, 2 acyl side, 3 side chain; linkers in the order of their positions; H or OH if unused. Positions of bridges follow the written chain, without caps; N, C: chain ends. Residues, ends and D or L forms follow the SMILES beside them. *: point of attachment. C18 diacid = O=C(O)CCCCCCCCCCCCCCCCC(=O)*; γGlu = O=C(O)[C@H](CCC(=O)[*:2])N[*:1]; AEEA = NCCOCCOCC(=O)O

Biological target: T1, human natriuretic peptide receptor 2 (hNPR2) (Homo sapiens, UniProt P20594)
T1 construct: expressed in transfected cells; host or cells: HEK293 (ATCC CRL-1573), clone 35, co-transfected with pGloSensor-42F
T1 sequence (P20594 23-1047): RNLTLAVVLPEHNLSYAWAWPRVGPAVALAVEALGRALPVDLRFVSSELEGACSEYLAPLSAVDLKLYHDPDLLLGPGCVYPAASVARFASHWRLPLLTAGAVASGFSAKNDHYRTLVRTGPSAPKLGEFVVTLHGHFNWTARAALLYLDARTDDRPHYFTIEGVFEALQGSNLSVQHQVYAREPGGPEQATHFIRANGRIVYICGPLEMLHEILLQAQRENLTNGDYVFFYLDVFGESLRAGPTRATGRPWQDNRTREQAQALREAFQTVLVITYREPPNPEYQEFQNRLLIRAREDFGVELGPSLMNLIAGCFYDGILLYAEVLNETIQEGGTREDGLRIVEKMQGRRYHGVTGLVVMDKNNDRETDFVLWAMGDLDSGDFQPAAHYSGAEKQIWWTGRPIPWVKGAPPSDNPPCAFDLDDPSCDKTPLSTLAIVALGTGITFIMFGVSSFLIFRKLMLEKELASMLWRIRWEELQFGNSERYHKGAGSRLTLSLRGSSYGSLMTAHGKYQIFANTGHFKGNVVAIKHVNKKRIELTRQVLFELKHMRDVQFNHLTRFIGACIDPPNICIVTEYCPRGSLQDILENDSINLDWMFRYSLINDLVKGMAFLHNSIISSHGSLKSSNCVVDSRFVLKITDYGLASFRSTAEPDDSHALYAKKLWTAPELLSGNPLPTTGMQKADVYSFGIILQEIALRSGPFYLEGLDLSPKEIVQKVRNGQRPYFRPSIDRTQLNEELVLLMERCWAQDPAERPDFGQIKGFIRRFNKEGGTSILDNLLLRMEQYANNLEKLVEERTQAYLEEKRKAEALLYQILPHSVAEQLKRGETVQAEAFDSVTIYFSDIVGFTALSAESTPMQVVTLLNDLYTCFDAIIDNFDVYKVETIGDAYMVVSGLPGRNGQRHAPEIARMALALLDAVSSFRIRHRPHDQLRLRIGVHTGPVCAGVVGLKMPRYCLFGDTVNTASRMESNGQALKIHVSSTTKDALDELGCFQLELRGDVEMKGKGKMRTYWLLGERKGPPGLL
Assay: In vitro hNPR2 activity assay (cGMP GloSensor reporter, HEK293)
Assay type: cell-based
Conditions: for EC50: 0% HSA, HEK293-hNPR2/GloSensor cells; for hNPR2 0% HSA. [EC50% rel CNP]: potency relative to CNP22 (0065)
How it was run: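 Potency is the EC50 from a four-parameter logistic fit, also expressed relative to the in-plate CNP22 control (×100), with at least two replicates. Compounds (ten concentrations, […], HSA-free diluent with 1% OVA, 0.01% Tween20) were incubated 30 min at 37 °C on HEK293 cells co-expressing hNPR2 and a GloSensor cGMP luciferase. Luminescence detected with Bright-Glo.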

Structure (SMILES)	EC50	hNPR2 0% HSA. [EC50% rel CNP]
CC[C@H](C)[C@@H]1NC(=O)[C@H](CCCNC(=N)N)NC(=O)[C@H](CC(=O)O)NC(=O)[C@H](CC(C)C)NC(=O)[C@H](CCCCN)NC(=O)[C@H](CC(C)C)NC(=O)CNC(=O)[C@H](Cc2ccccc2)NC(=O)[C@@H](NC(=O)CNC(=O)[C@H](CCCCN)NC(=O)[C@H](CO)NC(=O)[C@H](CC(C)C)NC(=O)CNC(=O)[C@H](CCCCN)NC(=O)[C@H](CCC(=O)O)NC(=O)[C@H](CCC(N)=O)NC(=O)[C@H](C)NC(=O)CNC(=O)[C@H](CCC(N)=O)NC(=O)[C@H](CCC(=O)O)NC(=O)COCCOCCNC(=O)COCCOCCNC(=O)CC[C@H](NC(=O)CCCCCCCCCCCCCCCCC(=O)O)C(=O)O)CSSC[C@@H](C(=O)O)NC(=O)CNC(=O)[C@H](CC(C)C)NC(=O)CNC(=O)[C@H](CO)NC(=O)[C@H](CC(C)C)NC(=O)[C@H](CO)NC(=O)CNC1=O [compound 1231] ({C18 diacid-γGlu-AEEA-AEEA}-EQGAQEKGLSKGCFGLKLDRIGSLSGLGC-OH; disulfide 13-29)	5.62 nM	4.1%
CC[C@H](C)[C@@H]1NC(=O)[C@H](CCCNC(=N)N)NC(=O)[C@H](CC(=O)O)NC(=O)[C@H](CC(C)C)NC(=O)[C@@H]2CCCN2C(=O)[C@H](CC(C)C)NC(=O)CNC(=O)[C@H](Cc2ccccc2)NC(=O)[C@@H](NC(=O)CNC(=O)[C@H](Cc2c[nH]cn2)NC(=O)[C@H](CO)NC(=O)[C@H](CC(C)C)NC(=O)CNC(=O)[C@H](CCCCN)NC(=O)[C@H](CCCCN)NC(=O)[C@H](CCC(N)=O)NC(=O)[C@H](C)NC(=O)CNC(=O)COCCOCCNC(=O)COCCOCCNC(=O)CC[C@H](NC(=O)CCCCCCCCCCCCCCCCC(=O)O)C(=O)O)CSSC[C@@H](C(=O)O)NC(=O)CNC(=O)[C@H](CC(C)C)NC(=O)CNC(=O)[C@H](CO)NC(=O)[C@H](CC(C)C)NC(=O)[C@H](CO)NC(=O)CNC1=O [compound 1347] ({C18 diacid-γGlu-AEEA-AEEA}-GAQKKGLSHGCFGLPLDRIGSLSGLGC-OH; disulfide 11-27; C-terminus assumed)		15.4%
CC[C@H](C)[C@@H]1NC(=O)[C@H](CCCNC(=N)N)NC(=O)[C@H](CC(=O)O)NC(=O)[C@H](CC(C)C)NC(=O)[C@H](CCCCN)NC(=O)[C@H](CC(C)C)NC(=O)CNC(=O)[C@H](Cc2ccccc2)NC(=O)[C@@H](NC(=O)CNC(=O)[C@H](CCCCN)NC(=O)[C@H](CO)NC(=O)[C@H](CC(C)C)NC(=O)CNC(=O)[C@H](CCCCN)NC(=O)[C@H](CCCCN)NC(=O)[C@H](CCC(N)=O)NC(=O)[C@H](C)NC(=O)CNC(=O)[C@H](Cc2c[nH]cn2)NC(=O)[C@H](CCC(=O)O)NC(=O)COCCOCCNC(=O)COCCOCCNC(=O)COCCOCCNC(=O)CC[C@H](NC(=O)CC[C@H](NC(=O)CCCCCCCCCCCCCCCCC(=O)O)C(=O)O)C(=O)O)CSSC[C@@H](C(=O)O)NC(=O)CNC(=O)[C@H](CC(C)C)NC(=O)CNC(=O)[C@H](CO)NC(=O)[C@H](CC(C)C)NC(=O)[C@H](CO)NC(=O)CNC1=O [compound 1357]	2.53 nM	4.3%
CC[C@H](C)[C@@H]1NC(=O)[C@H](CCCNC(=N)N)NC(=O)[C@H](CCC(=O)O)NC(=O)[C@H](CC(C)C)NC(=O)[C@@H]2CCCN2C(=O)[C@H](CC(C)C)NC(=O)CNC(=O)[C@H](Cc2ccccc2)NC(=O)[C@@H](NC(=O)CNC(=O)[C@H](CO)NC(=O)[C@H](CO)NC(=O)[C@@H](NC(=O)CNC(=O)[C@H](CCCCN)NC(=O)[C@H](CCCCN)NC(=O)[C@H](CCC(N)=O)NC(=O)[C@H](C)NC(=O)CNC(=O)[C@H](Cc2c[nH]cn2)NC(=O)[C@H](Cc2ccc(O)cc2)NC(=O)[C@H](CCCCN)NC(=O)[C@H](CCCNC(=N)N)NC(=O)[C@H](C)NC(=O)COCCOCCNC(=O)COCCOCCNC(=O)CC[C@H](NC(=O)CC[C@H](NC(=O)CC[C@H](NC(=O)CCCCCCCCCCCCCCCCC(=O)O)C(=O)O)C(=O)O)C(=O)O)C(C)C)CSSC[C@@H](C(=O)O)NC(=O)CNC(=O)[C@H](CC(C)C)NC(=O)CNC(=O)[C@H](CO)NC(=O)[C@H](CC(C)C)NC(=O)[C@H](CO)NC(=O)CNC1=O [compound 1451] ({C18 diacid-γGlu-γGlu-γGlu-AEEA-AEEA}-ARKYHGAQKKGVSSGCFGLPLERIGSLSGLGC-OH; disulfide 16-32)		47.5%
CC[C@H](C)[C@@H]1NC(=O)[C@H](CCCNC(=N)N)NC(=O)[C@H](CC(=O)O)NC(=O)[C@H](CC(C)C)NC(=O)[C@@H]2CCCN2C(=O)[C@H](CC(C)C)NC(=O)CNC(=O)[C@H](Cc2ccccc2)NC(=O)[C@@H](NC(=O)CNC(=O)[C@H](CO)NC(=O)[C@H](CO)NC(=O)[C@H](CC(C)C)NC(=O)CNC(=O)[C@H](CCC(=O)O)NC(=O)[C@H](CCCCN)NC(=O)[C@H](CCC(N)=O)NC(=O)[C@H](C)NC(=O)CNC(=O)[C@H](CCC(=O)O)NC(=O)COCCOCCNC(=O)COCCOCCNC(=O)CC[C@H](NC(=O)CCCCCCCCCCCCCCCCC(=O)O)C(=O)O)CSSC[C@@H](C(=O)O)NC(=O)CNC(=O)[C@H](CC(C)C)NC(=O)CNC(=O)[C@H](CO)NC(=O)[C@H](CC(C)C)NC(=O)[C@H](CO)NC(=O)CNC1=O [compound 1288] ({C18 diacid-γGlu-AEEA-AEEA}-EGAQKEGLSSGCFGLPLDRIGSLSGLGC-OH; disulfide 12-28)		3.0%
CC[C@H](C)[C@@H]1NC(=O)[C@H](CCCNC(=N)N)NC(=O)[C@H](CC(=O)O)NC(=O)[C@H](CC(C)C)NC(=O)[C@@H]2CCCN2C(=O)[C@H](CC(C)C)NC(=O)CNC(=O)[C@H](Cc2ccccc2)NC(=O)[C@@H](NC(=O)CNC(=O)[C@H](CCC(N)=O)NC(=O)[C@H](CO)NC(=O)[C@@H](NC(=O)CNC(=O)[C@H](CCCCN)NC(=O)[C@H](CCCCN)NC(=O)[C@H](CCC(N)=O)NC(=O)[C@H](C)NC(=O)CNC(=O)[C@H](CCCCN)NC(=O)[C@H](Cc2ccc(O)cc2)NC(=O)COCCOCCNC(=O)COCCOCCNC(=O)COCCOCCNC(=O)COCCOCCNC(=O)CC[C@H](NC(=O)CC[C@H](NC(=O)CCCCCCCCCCCCCCCCC(=O)O)C(=O)O)C(=O)O)C(C)C)CSSC[C@@H](C(=O)O)NC(=O)CNC(=O)[C@H](CC(C)C)NC(=O)CNC(=O)[C@H](CO)NC(=O)[C@H](CC(C)C)NC(=O)[C@H](CO)NC(=O)CNC1=O [compound 1436] ({C18 diacid-γGlu-γGlu-AEEA-AEEA-AEEA-AEEA}-YKGAQKKGVSQGCFGLPLDRIGSLSGLGC-OH; disulfide 13-29; C-terminus assumed)		30.2%
CC[C@H](C)[C@@H]1NC(=O)[C@H](CCCNC(=N)N)NC(=O)[C@H](CC(=O)O)NC(=O)[C@H](CC(C)C)NC(=O)[C@@H]2CCCN2C(=O)[C@H](CC(C)C)NC(=O)CNC(=O)[C@H](Cc2ccccc2)NC(=O)[C@@H](NC(=O)CNC(=O)[C@H](CCCCN)NC(=O)[C@H](CO)NC(=O)[C@@H](NC(=O)CNC(=O)[C@@H](NC(=O)[C@H](CCCCN)NC(=O)[C@H](CCC(N)=O)NC(=O)[C@H](C)NC(=O)CNC(=O)[C@H](Cc2c[nH]cn2)NC(=O)[C@H](Cc2ccc(O)cc2)NC(=O)[C@H](CCCCN)NC(=O)[C@H](CCCNC(=N)N)NC(=O)[C@H](C)NC(=O)COCCOCCNC(=O)COCCOCCNC(=O)CC[C@H](NC(=O)CC[C@H](NC(=O)CC[C@H](NC(=O)CCCCCCCCCCCCCCCCC(=O)O)C(=O)O)C(=O)O)C(=O)O)[C@@H](C)O)C(C)C)CSSC[C@@H](C(=O)O)NC(=O)CNC(=O)[C@H](CC(C)C)NC(=O)CNC(=O)[C@H](CO)NC(=O)[C@H](CC(C)C)NC(=O)[C@H](CO)NC(=O)CNC1=O [compound 1423] ({C18 diacid-γGlu-γGlu-γGlu-AEEA-AEEA}-ARKYHGAQKTGVSKGCFGLPLDRIGSLSGLGC-OH; disulfide 16-32)		37.7%
